Key:
Assay type in all cases: in vivo
[1] = tested on: Spodoptera littoralis; experiment: Spodoptera littoralis (Egyptian cotton leafworm) leaf disc test; conditions: foliar, 72 h, application rate 200 ppm, cotton leaf discs, L1 larvae, mortality, feeding behavior, growth regulation 3 DAT
Excerpt: Spodoptera littoralis (Egyptian Cotton Leafworm): Cotton leaf discs were placed on agar in a 24-well microtiter plate and sprayed with test solutions at an application rate of 200 ppm. After drying, the leaf discs were infested with 5 L1 larvae. The samples were checked for mortality, feeding behavior, and growth regulation 3 days after treatment (DAT).

[2] = tested on: Diabrotica balteata; experiment: Diabrotica balteata (corn root worm) larval test on artificial diet; conditions: 120 h, application rate 200 ppm (concentration in well 18 ppm), L2 larvae on artificial diet, 5 days
Experimental: Diabrotica balteata (Corn Root Worm): A 24-well microtiter plate (MTP) with artificial diet was treated with test solutions at an application rate of 200 ppm (concentration in well 18 ppm) by pipetting. After drying, the MTP's were infested with L2 larvae (6-10 per well). After an incubation period of 5 days, samples were checked for larval mortality and growth regulation.

[3] = tested on: Myzus persicae; experiment: Myzus persicae (green peach aphid), systemic test; conditions: 144 h, application rate 12.5 ppm, roots of pea seedlings in test solution, 6 days
Excerpt: Myzus persicae (Green peach aphid), systemic test: Roots of pea seedlings, infested with an aphid population of mixed ages, are placed directly in the test solutions at an application rate of 12.5 ppm. 6 days after introduction, samples are checked for mortality and special effects on the plant. The following compounds gave at least 80% control of Myzus persicae: […]

[4] = tested on: Tetranychus urticae; experiment: Tetranychus urticae (two-spotted spider mite) leaf disc test; conditions: foliar, 192 h, application rate 200 ppm, bean leaf discs, 8 days
Excerpt: Bean leaf discs on agar in 24-well microtiter plates were sprayed with test solutions at an application rate of 200 ppm. After drying, the leaf discs are infested with mite populations of mixed ages. 8 days later, discs are checked for egg mortality, larval mortality, and adult mortality.

[5] = tested on: Heliothis virescens; experiment: Heliothis virescens (tobacco budworm) egg/larval test on artificial diet; conditions: 96 h, application rate 200 ppm (concentration in well 18 ppm), eggs on artificial diet, 4 days
Experimental: Eggs (0-24 h old) were placed in 24-well microtiter plate on artificial diet and treated with test solutions at an application rate of 200 ppm (concentration in well 18 ppm) by pipetting. After an incubation period of 4 days, samples were checked for egg mortality, larval mortality, and growth regulation.

[6] = tested on: Thrips tabaci; experiment: Thrips tabaci (onion thrips) leaf disc test; conditions: foliar, 168 h, application rate 200 ppm, sunflower leaf discs, 7 days
Experimental: Sunflower leaf discs were placed on agar in a 24-well microtiter plate and sprayed with test solutions at an application rate of 200 ppm. After drying, the leaf discs were infested with a thrips population of mixed ages. After an incubation period of 7 days, samples were checked for mortality.

[7] = tested on: Plutella xylostella; experiment: Plutella xylostella (diamond back moth) larval test on artificial diet; conditions: 144 h, application rate 200 ppm (concentration in well 18 ppm), L2 larvae on artificial diet, 6 days
Experimental: 24-well microtiter plate (MTP) with artificial diet was treated with test solutions at an application rate of 200 ppm (concentration in well 18 ppm) by pipetting. After drying, the MTP's were infested with L2 larvae (7-12 per well). After an incubation period of 6 days, samples were checked for larval mortality and growth regulation.

O=C(CSc1ccc(C2=NOC(c3cc(Cl)cc(Cl)c3)(C(F)(F)F)C2)cc1Cl)NCC(F)(F)F (centres unmarked) [Compound A5, 2-{2-Chloro-4-[5-(3,5-Dichloro-phenyl)-5-trifluoromethyl-4,5-dihydro-isoxazol-3-yl]-phenylsulfanyl}-N-(2,2,2-trifluoro-ethyl)-acetamide]
≥ 80%: pest or weed control at 200 ppm [1] | pest or weed control at 200 ppm [2] | pest or weed control at 12.5 ppm [3] | pest or weed control at 200 ppm [4] | pest or weed control at 200 ppm [5] | pest or weed control at 200 ppm [6] | pest or weed control at 200 ppm [7]

O=C(CSc1ccc(C2=NOC(c3cc(Cl)cc(Cl)c3)(C(F)(F)F)C2)cc1Br)NCC(F)(F)F (centres unmarked) [Compound A29, 2-{2-bromo-4-[5-(3,5-dichloro-phenyl)-5-trifluoromethyl-4,5-dihydro-isoxazol-3-yl]-phenylsulfanyl}-N-(2,2,2-trifluoro-ethyl)-acetamide]
≥ 80%: pest or weed control at 200 ppm [1] | pest or weed control at 200 ppm [2] | pest or weed control at 12.5 ppm [3] | pest or weed control at 200 ppm [4] | pest or weed control at 200 ppm [5] | pest or weed control at 200 ppm [6] | pest or weed control at 200 ppm [7]

O=C(C[S+]([O-])c1ccc(C2=NOC(c3cc(Cl)cc(Cl)c3)(C(F)(F)F)C2)cc1Br)NCC(F)(F)F (centres unmarked) [Compound A52, 2-{2-Bromo-4-[5-(3,5-dichloro-phenyl)-5-trifluoromethyl-4,5-dihydro-isoxazol-3-yl]-benzenesulfinyl}-N-(2,2,2-trifluoro-ethyl)-acetamide]
≥ 80%: pest or weed control at 200 ppm [1] | pest or weed control at 200 ppm [2] | pest or weed control at 12.5 ppm [3] | pest or weed control at 200 ppm [4] | pest or weed control at 200 ppm [5] | pest or weed control at 200 ppm [6] | pest or weed control at 200 ppm [7]

O=C(CS(=O)(=O)c1ccc(C2=NOC(c3cc(Cl)cc(Cl)c3)(C(F)(F)F)C2)cc1Br)NCC(F)(F)F (centres unmarked) [Compound A53, 2-{2-Bromo-4-[5-(3,5-dichloro-phenyl)-5-trifluoromethyl-4,5-dihydro-isoxazol-3-yl]-benzenesulfonyl}-N-(2,2,2-trifluoro-ethyl)-acetamide]
≥ 80%: pest or weed control at 200 ppm [1] | pest or weed control at 200 ppm [2] | pest or weed control at 12.5 ppm [3] | pest or weed control at 200 ppm [4] | pest or weed control at 200 ppm [5] | pest or weed control at 200 ppm [6] | pest or weed control at 200 ppm [7]

N#CC1(NC(=O)C[S+]([O-])c2ccc(C3=NOC(c4cc(Cl)cc(Cl)c4)(C(F)(F)F)C3)cc2Cl)CC1 (centres unmarked) [Compound A56, 2-[2-chloro-4-[5-(3,5-dichlorophenyl)-5-(trifluoromethyl)-4H-isoxazol-3-yl]phenyl]sulfinyl-N-(1-cyanocyclopropyl)acetamide]
≥ 80%: pest or weed control at 200 ppm [1] | pest or weed control at 200 ppm [2] | pest or weed control at 12.5 ppm [3] | pest or weed control at 200 ppm [4] | pest or weed control at 200 ppm [5] | pest or weed control at 200 ppm [6] | pest or weed control at 200 ppm [7]

N#CC1(NC(=O)CSc2ccc(C3=NOC(c4cc(Cl)cc(Cl)c4)(C(F)(F)F)C3)cc2Cl)CC1 (centres unmarked) [Compound A60, 2-[2-chloro-4-[5-(3,5-dichlorophenyl)-5-(trifluoromethyl)-4H-isoxazol-3-yl]phenyl]sulfanyl-N-(1-cyanocyclopropyl)acetamide]
≥ 80%: pest or weed control at 200 ppm [1] | pest or weed control at 200 ppm [2] | pest or weed control at 12.5 ppm [3] | pest or weed control at 200 ppm [4] | pest or weed control at 200 ppm [5] | pest or weed control at 200 ppm [6] | pest or weed control at 200 ppm [7]

N#CC1(NC(=O)CS(=O)(=O)c2ccc(C3=NOC(c4cc(Cl)cc(Cl)c4)(C(F)(F)F)C3)cc2Cl)CC1 (centres unmarked) [Compound A61, 2-[2-chloro-4-[5-(3,5-dichlorophenyl)-5-(trifluoromethyl)-4H-isoxazol-3-yl]phenyl]sulfonyl-N-(1-cyanocyclopropyl)acetamide]
≥ 80%: pest or weed control at 200 ppm [1] | pest or weed control at 200 ppm [2] | pest or weed control at 200 ppm [4] | pest or weed control at 200 ppm [5] | pest or weed control at 200 ppm [6] | pest or weed control at 200 ppm [7]

Cc1cc(C2=NO[C@@](c3cc(Cl)cc(Cl)c3)(C(F)(F)F)C2)ccc1SCC(=O)NCC(F)(F)F [Compound C4, 2-{4-[(S)-5-(3,5-Dichloro-phenyl)-5-trifluoromethyl-4,5-dihydro-isoxazol-3-yl]-2-methyl-phenylsulfanyl}-N-(2,2,2-trifluoro-ethyl)-acetamide]
≥ 80%: pest or weed control at 200 ppm [1] | pest or weed control at 200 ppm [2]

O=C(C[S+]([O-])c1ccc(C2=NO[C@@](c3cc(Cl)c(Cl)c(Cl)c3)(C(F)(F)F)C2)cc1Cl)NC1CC1 (stereo partly drawn) [Compound D5, 2-[2-chloro-4-[(5S)-5-(3,4,5-trichlorophenyl)-5-(trifluoromethyl)-4H-isoxazol-3-yl]phenyl]sulfinyl-N-cyclopropyl-acetamide]
≥ 80%: pest or weed control at 12.5 ppm [3]

O=C(CS(=O)(=O)c1ccc(C2=NO[C@@](c3cc(Cl)c(Cl)c(Cl)c3)(C(F)(F)F)C2)cc1Cl)NC1CC1 [Compound D6, 2-[2-chloro-4-[(5S)-5-(3,4,5-trichlorophenyl)-5-(trifluoromethyl)-4H-isoxazol-3-yl]phenyl]sulfonyl-N-cyclopropyl-acetamide]
≥ 80%: pest or weed control at 12.5 ppm [3]

Cc1cc(C2=NOC(c3cc(Cl)cc(Cl)c3)(C(F)(F)F)C2)cnc1SCC(=O)NC1CC1 (centres unmarked) [Compound F1, N-cyclopropyl-2-[[5-[5-(3,5-dichlorophenyl)-5-(trifluoromethyl)-4H-isoxazol-3-yl]-3-methyl-2-pyridyl]sulfanyl]acetamide]
≥ 80%: pest or weed control at 200 ppm [1] | pest or weed control at 200 ppm [2] | pest or weed control at 200 ppm [4] | pest or weed control at 200 ppm [5] | pest or weed control at 200 ppm [7]

Cc1cc(C2=NOC(c3cc(Cl)cc(Cl)c3)(C(F)(F)F)C2)ncc1SCC(=O)NC1CC1 (centres unmarked) [Compound F2, N-cyclopropyl-2-[[6-[5-(3,5-dichlorophenyl)-5-(trifluoromethyl)-4H-isoxazol-3-yl]-4-methyl-3-pyridyl]sulfanyl]acetamide]
≥ 80%: pest or weed control at 200 ppm [1] | pest or weed control at 200 ppm [2] | pest or weed control at 12.5 ppm [3] | pest or weed control at 200 ppm [5] | pest or weed control at 200 ppm [7]

From US8895587B2, “Insecticidal compounds based on arylthioacetamide derivatives” (Syngenta Participations AG, priority 2011, dated 2014)
